Laboratory results reported in patent US20090082453A1, “Exogenous Methyl Dihydrojasmonate for Prevention and Control of Biotic Attack in Plants” (NEW BIOLOGY, INC., priority 2007, published 2009).

Assays:
[1] = system: proteinase inhibitor I and II; test: Proteinase inhibitor I and II induction in tomato seedlings, radial immunodiffusion assay, 24 h (Example 1); format: in vivo; details: 1.5 mM in water, FIG. 1
Experimental: Seven test samples or groups were prepared using two week old tomato seedlings. The descriptions of the treatments given to each test sample can be found in Table 2 below. Liquid formulations were applied by spraying three squirts to the foliage with a spray bottle. Eight plants per treatment (four pots per treatment, each pot containing two seedlings) were sprayed with each test formulation. Plants from each treatment were isolated in enclosed Plexiglas boxes and placed overnight in a light- and temperature-controlled growth chamber (i.e., plants given the same treatment were isolated together in a single Plexiglas box; plants given different treatments were in different boxes). Twenty-four hours after treatment, each plant was assayed for proteinase inhibitor I and II production by a radial immunodiffusion assay using anti-inhibitor antibodies (Ryan, C. A., Analytical Biochemistry 19 (1967), pp. 424-440, the contents of which are incorporated by reference in their entirety). [table] The results for each of the test samples are shown in FIG. 1, a graph in which proteinase inhibitor levels (PI-I and PI-II) are reported in micrograms of proteinase inhibitor per milliliter of leaf extract for each test sample. The two plants per pot were pooled to give one data point per pot (i.e., four data points total were collected per treatment).

damping off disease = test: Observational decrease in disease in tomato seedlings (Example 8); format: in vivo; details: 1.5 mM MDHJ, 0.5% canola oil, 0.125% Triton X-100 foliar spray; 17th day after treatment
Experimental: FIG. 9 is a photograph of an untreated tomato seedling, illustrating the damping off disease on the leaves;
One group of tomato seedlings was treated with a formulation comprising 1.5 mM MDHJ, 0.5% canola oil, and 0.125% Triton® X-100 by spraying the foliage until the point of dripping. Another group of tomato seedlings was left untreated. Plants from each group were isolated in respective Plexiglas boxes. Photographs of the plants were taken on the 17th day after treatment. One plant in each treatment group had died.

Polyphenol Oxidase = test: Activation of polyphenol oxidase in field-grown roses (Example 4); format: in vivo, 'Julia Child' roses; details: FIG. 5; for PPO activity: 5 mM + 0.5% canola oil + 0.125% Triton X-100, 44 hours, caffeic acid substrate
Experimental: Field grown 1-year old ‘Julia Child’ roses were treated with foliar sprays of two different formulations. Roses were treated by spraying the foliage of each plant to the point of drip to ensure maximum coverage. There were three plants per treatment. 44 hours after application, 3 young leaves from each plant (each leaf from a different stem and all leaves at the same stage of development) were collected and pooled for analysis of PPO activity as in Example 2 above, except that 0.5 ml of ice cold extraction buffer were used, followed by addition of 160 μl 10% Triton® X-100. 50 μl of the supernatant was added to 1 ml of PPO assay buffer. The formulations are set forth in Table 5 below, and the data is shown FIG. 5, a graph of PPO activity for the two formulations and an untreated control. Data are reported as mean and SEM for each treatment.

gene expression = details: tobacco plants; cited from earlier work
powdery mildew = test: Treatment and control of powdery mildew in roses (Example 10); format: in vivo, powdery mildew on 'Mr. Lincoln' roses; details: beyond disease levels measured prior to first treatment
Experimental: Outdoor potted roses of the cultivar ‘Mr. Lincoln’ were treated with 9 treatment samples (8 formulations and one untreated control). For each treatment sample, three plots having three plants each were treated for a total of 9 plants per treatment. Roses were treated every 2 weeks by spraying the foliage of each plant to the point of drip to ensure maximum coverage. Plants were initially evaluated for powdery mildew incidence and severity prior to the first treatment of the trial. […] Subsequent evaluations followed every 10 days for 2 months. Evaluations consisted of evaluating 60 individual leaves per plot (20 leaves were collected from 3 rose plants per plot) for disease incidence and severity. Disease incidence was determined by counting the number of leaves infected. Disease severity was determined as the percentage of leaf surface infected with the disease. Analysis of Variance was calculated for both severity and incidence. Table 11 below describes the mean number of leaves found to be infected with powdery mildew for each treatment group on respective evaluation days. […] FIG. 15 is a graph illustrating the percentage of leaves infected in each treatment group. In FIG. 15, the individual bars within each treatment represent successive evaluations on days 1, 11, 21, 31, 41, 52, and 62.

[2] = system: cell suspension cultures of E. californica; details: cited from earlier work
aphids = test: Field study of aphid infestations in roses (Example 7); format: in vivo, aphids on 'Mr. Lincoln' roses; details: for concentration at which more efficacious against aphids: 1.5 mM vs 5 mM; for incidence of aphids on roses: foliar spray every 10-13 days, height of aphid pressure, FIGS. 7 and 8
Experimental: Potted roses of the cultivar ‘Mr. Lincoln’ were treated with 9 treatment samples (8 formulations and one untreated control). For each treatment sample, three plots having three plants each were treated, for a total of 9 plants per treatment. Roses were treated every 10-13 days by spraying the foliage of each plant to the point of drip to ensure maximum coverage. The plants were evaluated at approximately 10-day intervals for the number of aphids on each plant. Table 8 below includes the descriptions of the test formulations.
FIGS. 7 and 8 are two representations of the same data, taken at the height of aphid pressure. FIG. 7 is a histogram representing mean and SEM aphid counts on the roses with the various formulations. In FIG. 8, each data point represents the number of aphids on a single plant.

trypsin inhibitor = test: Activation of trypsin inhibitor in roses (Example 6); format: in vivo, white miniature roses (Parade Rose); details: 48 hours, FIG. 6; for proteinase (trypsin) inhibitor activity: 5.0 mM foliage spray plus root drench
Experimental: Potted plants of white miniature roses, marketed as Parade Rose® received one of three treatments. Roses were treated by (1) spraying the foliage of each plant to the point of drip to ensure maximum coverage; and (2) pouring 50 ml of the formulation into the soil within the root zone. There were three plants per treatment. 48 hours after treatment, all leaves from the entire plant were collected and pooled for analysis of trypsin inhibitor activity. Leaf extracts were prepared by adding 25 ml of 0.4 M sodium phosphate, pH 9, extraction buffer and 3 ml of 10% Triton® X-100 and grinding in a blender. The extract was filtered through four layers of cheesecloth. One milliliter of extract was spun at 2000×g for 15 minutes at 4-degrees and the resulting supernatant was frozen until the assay could be completed.
For the trypsin assay, rose extracts were thawed and replicates of 1, 2, and 3 μl for each extract were added to trypsin assay solution containing p-toluene-sulfonyl-L-arginine methyl ester (TAME) as the trypsin substrate. The level of trypsin activity was measured and reflects trypsin inhibition by trypsin inhibitor. Data is shown in FIG. 6, a graph of the results, and is presented as the mean and SEM of % remaining trypsin activity per gram fresh weight for 1, 2, and 3 μl. In FIG. 6, lower values represent greater trypsin inhibitor activity.

Polyphenol Oxidase (PPO) = test: Polyphenol oxidase (PPO) induction in tomato plants (Example 2); format: in vivo; details: tomato seedlings, 1.5 mM + 0.5% canola oil + 0.125% Triton X-100, 24 hours; FIG. 2
Experimental: Three test samples were prepared using tomato seedlings. The descriptions of the treatments given to each test sample can be found in Table 3 below.
Liquid formulations were applied by spraying three squirts to the foliage with a spray bottle. Seedlings from each treatment were isolated in plastic boxes (i.e., as in Example 1, plants given the same treatment were isolated together). Polyphenol oxidase assays were carried out on the entire foliage of each plant 24 hours after application (Stout, M. J., Brovont, R. A., and Duffey, S. S., J. Chemical Ecology 24:6, pp. 946-963, the contents of which are incorporated by reference in their entirety).
The assay procedure was as follows. Tomato leaflets were weighed and ground in 1 ml of ice-cold extraction buffer (0.1M sodium phosphate buffer, pH 7, containing 3.5% polyvinylpolypyrolidine). Following grinding, 0.4 ml of 10% Triton® X-100 was added to the leaf homogenate, mixed and centrifuged for 15 minutes at 2000×g at 4-degrees. Fifteen microliters of the resulting supernatant was added to 1 ml of PPO Assay Buffer (2.92 mM caffeic acid in pH 7 sodium phosphate buffer) and the change in absorbance at A470 was recorded every minute for 10 minutes. Change in absorbance rate (OD A470/min/g protein) reflects the rate of formation of a compound produced by the activity of PPO. […]

| Structure (SMILES) | proteinase inhibitor level compared with wounding response [1] | signs of disease in seedlings (damping off disease) | PPO activity (Polyphenol Oxidase) | elicitation of plant defenses (PPO) compared with MJ (Polyphenol Oxidase; field-grown roses, 5 mM, 44 hours) | bioactivity relative to MJ (gene expression) | progression of powdery mildew incidence (powdery mildew) | concentration inducing benzo[c]phenanthridine alkaloid synthesis [2] | concentration relative to MJ required for the same effect [2] | concentration at which more efficacious against aphids (aphids) | incidence of aphids on roses (aphids) | proteinase (trypsin) inhibitor activity (trypsin inhibitor) | enhancement of proteinase inhibitor activity compared with MJ (trypsin inhibitor; 5.0 mM) | activation of PPO (Polyphenol Oxidase (PPO)) |
| --- | --- | --- | --- | --- | --- | --- | --- | --- | --- | --- | --- | --- | --- |
| CCCCCC1C(=O)CCC1CC(=O)OC (stereo not shown) [MDHJ, methyl dihydrojasmonate] | much greater level than the plant's natural response to wounding | did not show signs of disease | increased PPO activity | equal to or better than the levels seen after MJ application | only a small fraction of the bioactivity of MJ | similarly effective in slowing the progression of powdery mildew incidence | 10 µM | five times the concentration of MJ required to produce the same effect | more efficacious at the lower concentration of 1.5 mM | reduced aphid counts | enhanced proteinase inhibitor activity | to a greater degree than MJ | activate PPO |
| CC/C=C\CC1C(=O)CCC1CC(=O)OC (stereo not shown) [MJ, methyl jasmonate, reference compound] | much greater level than the plant's natural response to wounding | – | increased PPO activity | – | – | similarly effective in slowing the progression of powdery mildew incidence | – | – | more efficacious at the higher concentration of 5 mM | reduced aphid counts | enhanced proteinase inhibitor activity | – | – |
